Values after ≈ are worked out from the molar mass of the structure shown. Like-named read-outs stand apart in the source and are kept apart here.
Key:
[1] = test system: E. coli strains AG100, AG100A, AGT11, AGT11K; assay: Inhibition of growth rate in broth (liquid) culture; assay type: cell-based, Escherichia coli; conditions: for IC50: Escherichia coli, 1 h, 1 h after addition
[2] = test system: Mycobacterium smegmatis mc^2155 and InhA mutants; assay: MIC on agar plates by 2-fold serial dilutions, M. smegmatis strains; assay type: cell-based; conditions: for MIC: Mycolicibacterium smegmatis
M. tuberculosis = conditions: cited from earlier work
[3] = test system: clinical strains of E. coli; assay: Triclosan MIC of clinical strains from blood samples; assay type: cell-based; conditions: Escherichia coli
[4] = test system: E. coli K12 strain AG100 and triclosan resistant mutants; assay: Triclosan MIC by agar serial dilution plates (2.0 fold steps), AG100 and mutants selected on triclosan; assay type: cell-based, Escherichia coli; conditions: for MIC: agar dilution plates
E. coli K-12 derivatives = assay: microbe, parasite or virus in culture; assay type: cell-based, Escherichia coli; conditions: for MIC: Escherichia coli
[5] = test system: hypersusceptible host strain AG100A bearing pBR322-derived plasmids; assay: Triclosan MIC encoded by plasmid clones in hypersusceptible host AG100A; assay type: cell-based; conditions: Escherichia coli
[6] = test system: E. coli strains AG100, AG100A, AGT11, AGT11K; assay: Cell lysis in broth (liquid) culture (loss of absorbance with loss of viable cfu); assay type: cell-based, Escherichia coli
M. smegmatis = conditions: cited from earlier work
[7] = test system: E. coli strain AGT11 versus isogenic parent AG100; assay: Isoniazid resistance of E. coli in the presence of 250 μM hydrogen peroxide; assay type: cell-based, Escherichia coli; conditions: triclosan-resistant strain AGT11; 250 μM hydrogen peroxide present

Oc1cc(Cl)ccc1Oc1ccc(Cl)cc1Cl [triclosan, 2,4,4′-trichlor-2′-hydroxydiphenyl ether]
IC50 ([1]; read-out: Concentration of triclosan which inhibited growth rate 50%, strain AG100 (wild type), OD530): ~0.15 µg/mL (≈ 0.518 µM) | IC50 ([1]; read-out: Concentration of triclosan which inhibited growth rate 50%, strain AG100A (ΔacrAB)): ~0.02 µg/mL (≈ 0.0691 µM) | Concentration of triclosan which inhibited growth rate 90% ([1]; strain AG100 (wild type)): 0.6 µg/mL | Concentration of triclosan which inhibited growth rate 90% ([1]; strain AG100A (ΔacrAB)): 0.05 µg/mL | MIC ([2]; MC^2155, mc^2155, triclosan in 7H9): 14 µg/mL (≈ 48.4 µM) | MIC ([2]; MC^2155, mc^2155, triclosan in LB, mean (+/− S.D.) of 4-5 experiments): 0.61 µg/mL (≈ 2.11 µM) | susceptibility to triclosan (M. tuberculosis): not sensitive | MIC ([3]; read-out: mean triclosan MIC, multiply resistant clinical strains E3, E19, HO99 overexpressing marA or soxS): 0.33 µg/mL | MIC ([3]; read-out: mean triclosan MIC, remaining 26 multiply resistant clinical strains overexpressing neither marA or soxS): 0.13 µg/mL | MIC ([3]; read-out: mean triclosan MIC, 14 of 15 antibiotic-susceptible clinical strains (Series S)): 0.09 µg/mL | MIC ([3]; read-out: triclosan MIC, multiply resistant clinical strain E10, overexpressing neither marA nor soxS): 0.38 µg/mL | MIC ([3]; read-out: triclosan MIC, multiply resistant clinical strain HO 17, overexpressing marA): 0.15 µg/mL | MIC ([3]; read-out: triclosan MIC, susceptible clinical strain S20, overexpressing marA): 0.27 µg/mL | MIC ([4]; Escherichia coli, strain AG100 (wild-type)): 0.28 µg/mL (≈ 0.967 µM) | MIC ([4]; Escherichia coli, strain AG100A (AG100 ΔacrAB::kan)): 0.018 µg/mL (≈ 0.0622 µM) | MIC ([4]; Escherichia coli, strain AGT11 (AG100 fabI G93V)): 41 µg/mL (≈ 142 µM) | MIC ([4]; Escherichia coli, strain AGT11K (AGT11 ΔacrAB::kan)): 2 to 4 µg/mL (≈ 6.91 to 13.8 µM) | MIC of strain divided by MIC of AG1000 ([4]; strain AG100 (fabI none), inactivated locus acrAB): 0.063 | MIC of strain divided by MIC of AG1000 ([4]; strain AG100 (fabI none), inactivated locus mar): 0.71 | MIC of strain divided by MIC of AG1000 ([4]; strain AG100 (fabI none), inactivated locus none): 1 | MIC ([4]; strain AG100 (wild-type)): 0.28 ± 0.04 µg/mL (≈ 0.967 µM) | MIC of strain divided by MIC of AG1000 ([4]; strain AGT7 (fabI mutation NI), inactivated locus none): 1.7 | MIC of strain divided by MIC of AG1000 ([4]; strain AGT7, inactivated locus acrAB): 0.071 | MIC of strain divided by MIC of AG1000 ([4]; strain AGT7, inactivated locus mar): 1.7 | MIC of strain divided by MIC of AG1000 ([4]; strain AGT8 (fabI mutation NI), inactivated locus none): 4 | MIC of strain divided by MIC of AG1000 ([4]; strain AGT8, inactivated locus acrAB): 0.25 | MIC of strain divided by MIC of AG1000 ([4]; strain AGT8, inactivated locus mar): 3.4 | MIC of strain divided by MIC of AG1000 ([4]; strain AGT9 (fabI mutation NI), inactivated locus none): 2.3 | MIC of strain divided by MIC of AG1000 ([4]; strain AGT9, inactivated locus acrAB): 0.32 | MIC of strain divided by MIC of AG1000 ([4]; strain AGT9, inactivated locus mar): 2.3 | MIC ([4]; strain AGT11K (AGT11 ΔacrAB::kan)): 3.2 µg/mL (≈ 11.1 µM) | MIC of strain divided by MIC of AG1000 ([4]; strain AGT21 (fabI G93V), inactivated locus acrAB): 11.4 | MIC of strain divided by MIC of AG1000 ([4]; strain AGT21 (fabI G93V), inactivated locus mar): 145 | MIC of strain divided by MIC of AG1000 ([4]; strain AGT21 (fabI G93V), inactivated locus none): 145 | MIC of strain divided by MIC of AG1000 ([4]; strain AGT23 (fabI M159T), inactivated locus acrAB): 1.7 | MIC of strain divided by MIC of AG1000 ([4]; strain AGT23 (fabI M159T), inactivated locus none): 11.4 | MIC of strain divided by MIC of AG1000 ([4]; strain AGT25 (fabI F203L), inactivated locus acrAB): 0.57 | MIC of strain divided by MIC of AG1000 ([4]; strain AGT25 (fabI F203L), inactivated locus none): 4.6 | MIC (E. coli K-12 derivatives; AG100, span of Tables 3-5, read-out: MIC (determined on agar)): 0.17 to 0.28 µg/mL (≈ 0.587 to 0.967 µM) | MIC (E. coli K-12 derivatives; strain AG100, mean of two to five determinations, read-out: MIC): 0.17 µg/mL (≈ 0.587 µM) | MIC (E. coli K-12 derivatives; strain GC4488, read-out: MIC): 0.08 µg/mL (≈ 0.276 µM) | MIC (E. coli K-12 derivatives; strain HH180, read-out: MIC): 0.07 µg/mL (≈ 0.242 µM) | change of triclosan MIC by overexpression of acrAB (E. coli K-12 derivatives; strain AG100B (mutation in acrR) vs AG100): doubled | MIC ([5]; clones pLYT1 through pLYT10 (AGT11 library) in hypersensitive strain AG100A): ~4 µg/mL (≈ 13.8 µM) | MIC ([5]; vector alone (pBR322) in AG100A): 0.005 to 0.02 µg/mL (≈ 0.0173 to 0.0691 µM) | Concentration of triclosan which caused lysis ([6]; strain AG100 (wild type), within 2 h): 8 µg/mL | amount of triclosan required to give lysis ([6]; strains AG100, AG100A and AGT11K together): 2 to 8 µg/mL | susceptibility to triclosan (M. smegmatis): susceptible

NNC(=O)c1ccncc1 [isoniazid]
isoniazid resistance relative to isogenic parent AG100 [7]: several times | MIC ([2]; MC^2155): 7 µg/mL (≈ 51 µM) | relative MIC (S.D.) isoniazid (7H9) ([2]; strain mc^2155/pMD31::inhA^+): >64 | relative MIC (S.D.) isoniazid (7H9) ([2]; strain mc^2155 wild type): 1.0
